Data taken from US12582652B2, “3-(ethoxydifluoromethyl)-6-(5-fluoro-6-(2,2,2-trifluoroethoxy)pyridin-3-yl)-[1,2,4]triazolo[4,3-a]pyrazine as an ion channel modulator” (Praxis Precision Medicines, Inc., priority 2022, dated 2026).

Columns and labels:
[1] = in vivo
Description: (§5) This was a 2-part randomized, placebo-controlled Phase 1 trial in healthy participants aged 18-55 years. […] PD effects were examined on quantitative EEG (qEEG; resting and vigilant conditions) and stimulated EEG using auditory steady state response (ASSR). A total of 48 participants were enrolled; Part A, n=30; Part B, n=18.

[2] = biological target: T1, human NaV1.6 (Homo sapiens, UniProt Q9UQD0); assay: ATX-II activated late (persistent) INa block, PatchXpress patch clamp; type: cell-based; settings: for IC50: hNaV1.6, ATX-II-evoked, holding −120 mV
T1 construct: stably expressing either human NaV1.6 (NP_055006); expressed in transfected cells
T1 sequence (Q9UQD0 whole entry): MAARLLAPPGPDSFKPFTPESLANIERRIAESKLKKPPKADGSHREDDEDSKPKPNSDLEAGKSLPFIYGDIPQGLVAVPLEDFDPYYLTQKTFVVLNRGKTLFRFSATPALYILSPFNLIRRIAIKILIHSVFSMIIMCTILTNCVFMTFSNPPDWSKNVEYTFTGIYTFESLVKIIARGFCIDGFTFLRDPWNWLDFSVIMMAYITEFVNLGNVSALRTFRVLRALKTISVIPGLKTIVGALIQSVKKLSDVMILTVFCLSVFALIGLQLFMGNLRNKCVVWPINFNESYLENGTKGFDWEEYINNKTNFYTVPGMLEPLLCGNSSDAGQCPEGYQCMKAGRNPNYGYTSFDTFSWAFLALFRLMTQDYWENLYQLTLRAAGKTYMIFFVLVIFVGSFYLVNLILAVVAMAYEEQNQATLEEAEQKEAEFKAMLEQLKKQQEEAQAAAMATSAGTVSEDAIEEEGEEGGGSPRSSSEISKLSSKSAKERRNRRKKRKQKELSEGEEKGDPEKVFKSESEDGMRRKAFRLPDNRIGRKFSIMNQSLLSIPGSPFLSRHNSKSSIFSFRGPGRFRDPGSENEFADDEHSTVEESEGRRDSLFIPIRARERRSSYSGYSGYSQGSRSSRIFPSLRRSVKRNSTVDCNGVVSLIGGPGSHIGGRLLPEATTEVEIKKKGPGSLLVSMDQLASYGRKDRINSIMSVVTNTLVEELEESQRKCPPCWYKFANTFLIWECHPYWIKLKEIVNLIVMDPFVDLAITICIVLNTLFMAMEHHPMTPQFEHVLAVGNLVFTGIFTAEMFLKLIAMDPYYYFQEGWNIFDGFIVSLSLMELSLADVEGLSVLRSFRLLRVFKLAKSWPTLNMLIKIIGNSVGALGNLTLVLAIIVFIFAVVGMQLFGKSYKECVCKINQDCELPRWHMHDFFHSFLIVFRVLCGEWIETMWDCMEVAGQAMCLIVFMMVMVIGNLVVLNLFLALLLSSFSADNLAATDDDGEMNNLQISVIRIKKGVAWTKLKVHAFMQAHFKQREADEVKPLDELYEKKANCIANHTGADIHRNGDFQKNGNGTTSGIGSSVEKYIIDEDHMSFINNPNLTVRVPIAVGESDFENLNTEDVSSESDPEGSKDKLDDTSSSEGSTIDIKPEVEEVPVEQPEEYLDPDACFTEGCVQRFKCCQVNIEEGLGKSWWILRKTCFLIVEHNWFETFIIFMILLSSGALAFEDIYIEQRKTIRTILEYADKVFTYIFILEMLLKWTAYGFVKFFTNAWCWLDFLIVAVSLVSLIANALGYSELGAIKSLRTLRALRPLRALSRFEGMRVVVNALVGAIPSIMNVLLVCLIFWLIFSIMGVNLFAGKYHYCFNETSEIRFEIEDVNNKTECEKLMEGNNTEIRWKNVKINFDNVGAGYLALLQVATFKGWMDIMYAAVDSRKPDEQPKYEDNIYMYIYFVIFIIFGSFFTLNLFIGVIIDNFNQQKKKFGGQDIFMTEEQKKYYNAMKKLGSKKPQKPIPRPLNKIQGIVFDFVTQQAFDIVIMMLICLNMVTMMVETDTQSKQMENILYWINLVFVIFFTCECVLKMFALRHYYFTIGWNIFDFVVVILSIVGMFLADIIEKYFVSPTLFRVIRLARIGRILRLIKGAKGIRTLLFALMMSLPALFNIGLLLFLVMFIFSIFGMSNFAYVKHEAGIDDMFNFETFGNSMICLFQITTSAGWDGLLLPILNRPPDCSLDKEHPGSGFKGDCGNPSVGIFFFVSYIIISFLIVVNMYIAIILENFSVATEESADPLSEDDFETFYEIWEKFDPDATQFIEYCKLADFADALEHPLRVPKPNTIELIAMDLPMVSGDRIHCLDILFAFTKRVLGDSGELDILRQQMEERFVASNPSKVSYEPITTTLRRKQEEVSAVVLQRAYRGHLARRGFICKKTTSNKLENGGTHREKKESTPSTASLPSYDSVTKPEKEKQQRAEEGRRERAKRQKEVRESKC
Description: (§1) HEK-293 cell lines stably expressing either human NaV1.6 (NP_055006), mouse NaV1.6 (NP_035453.2), or rat NaV1.6 (NP_062139) were used. All cells were seeded at 2×10^6 cells per Nunc T75 flask for 2 days in culture. At time of harvest for assays, the cell counts were approximately 6×10^6 cells. Cells were washed (1×) in DPBS (Hyclone, Cat #SH30028.03) for approximately 30 seconds. 1 mL of 1×0.05% Trypsin-EDTA (GIBCO Cat #25300-054) was added and swirled around to cover the bottom of the flask and was allowed to sit on the cells for approximately 4 minutes (±90% of the cells were lifted by light tapping of the flask). 10 mL of warmed media (DMEM high glucose media Hyclone, SH30022.02 supplemented with 10% Fetal Bovine Serum, 2 mM Sodium Pyruvate, 10 mM HEPES and 400 μg/mL G418) was added to inactivate the trypsin. Cells were triturated until a single cell suspension was achieved. A cell count was performed and cells were aliquoted into a 250 ml centrifuge tube at a concentration of 2×10^5/mL in +30 ml of prewarmed media. The 250 mL centrifuge tube was placed on a rocker in an incubator set at 28° C. and gently rocked for approximately 1 hour to allow cells to recover. Cell aliquots of 5 mL (1×10^6 cells) were placed in a 15 mL centrifuge tube and spun at 100×g for 2 minutes. Supernatant was removed leaving a cell pellet. 100 μL of external recording solution was added to the pellet and triturated 20 times to achieve a single cell suspension and then transferred to a 1.5 mL tube for placement in the PatchXpress® (Molecular Devices).
(§2) Compound 1 was provided as powder and prepared as 10 mM DMSO stocks in 1 dram glass vials prior to assay. Immediately prior to assay, Compound 1 was diluted with DMSO to 300×, the designated final assay concentration. Assay dilutions (1× concentration) were prepared by pipetting 3 μL of diluted Compound 1 into 897 μL of extracellular solution in a 1 mL glass shell vial. Vials were capped and vortexed until initiation of the PatchXpress® (Molecular Devices) recording protocol.
(§3) The same intracellular recording solution was used for the persistent and peak INa assays, which contained: 135 mM CsF, 10 mM CsCl, 5 mM NaCl, 10 mM HEPES, 5 mM EGTA at a pH of 7.4 (adjusted with CsOH) and a measured osmolarity of 298 mOsm (adjusted with mannitol). For the persistent INa assay, the external recording solution contained: 135 mM NaCl, 5.4 mM KCl, 5 mM glucose, 2 mM CaCl2), 1 mM MgCl2, 10 mM HEPES, and 200 nM ATX-II (sea anemone toxin, Alomone Labs; Jerusalem, Israel) at a pH of 7.4 (adjusted with NaOH) and a measured osmolarity of 300 mOsm (adjusted with mannitol). For the peak INa assays, the external recording solution contained: 100 mM NaCl, 35 mM NMDG, 5.4 mM KCl, 5 mM glucose, 2 mM CaCl2), 1 mM MgCl2, and 10 mM HEPES at a pH of 7.4 (adjusted with NaOH) and a measured osmolarity of 300 mOsm (adjusted with mannitol).
(§4) All studies were performed using the PatchXpress® (Molecular Devices) automated patch clamp platform (Molecular Devices) using the whole cell configuration. Recordings were performed at room temperature. Data were collected using Patch Commander software (Molecular Devices) and processed using DataXpress 2.0 (Molecular Devices). Cell acceptance criteria were continuously monitored by custom scripts during the recording. Acceptance criteria for all assays were: baseline peak INa>800 pA, Rseal>200 MΩ, and, where appropriate, persistent INa>100 pA. Compensation was 50% and leak subtraction was not used. Currents were filtered at 5 kHz and digitized at 32.5 kHz. Raccess and Rseal were monitored throughout the recording and cells with Raccess>10 MΩ or Rseal<200 MΩ were terminated automatically by script.
Late (persistent) current Block: The inhibition of ATX-II activated late current was measured using a 200 ms voltage step to 0 mV. Protocols used low stimulation rates (about 0.1 Hz) and negative potentials (−120 mV) to keep channels in closed (resting) states.

[3] = biological target: T1, human NaV1.6; assay: Peak INa tonic block (TB), PatchXpress patch clamp; type: cell-based; settings: for IC50: hNaV1.6, 0.1 Hz, resting state
Description: as §1, §2, §3, §4
Tonic Block (TB): Tonic Block (TB) protocols used low stimulation rates (about 0.1 Hz) and negative potentials (−120 mV) to keep channels in closed (resting) states. Pharmacology was measured during peak INa in response to step to 0 mV. No leak subtraction was used.

[4] = biological target: T1, human NaV1.6; assay: Peak INa use-dependent block (UDB-10 Hz), PatchXpress patch clamp; type: cell-based
[5] = biological target: T1, human NaV1.6; assay: Peak INa voltage-dependent block (VDB), PatchXpress patch clamp; type: cell-based; settings: for IC50: hNaV1.6, half-inactivated (V1/2); for Ratio to Pers. INa (Peak INa VDB / persistent INa): hNaV1.6
Description: as §1, §2, §3, §4
Voltage Dependent Block (VDB): VDB protocols used a depolarized voltage to keep channels in half-inactivated (resting) states. This allowed equilibrium binding and accurate determination of isoform selectivity (in the absence of biological features).

[6] = tested on: male CD-1 mice; assay: Maximal electroshock induced seizure (MES) test; type: in vivo, mouse; settings: for protection (increase in latency) against MES-induced tonic hindlimb seizures, dose-response: Compound 1 0.3-10 mg/kg po; for ED50: mouse MES, read-out: Efficacy (MES) ED50, increasing latency to tonic extension seizures
Description: Food and water were available ad libitum.
VPA was prepared in saline (Vehicle 1). All solutions were protected from light. All compounds and vehicles were dosed at 10 ml/kg.
The MES test was carried out over two days with 6 of 12 mice from each treatment group being tested on each day. Mice were brought to the test room at least one hour before the start of the experiment.
A Grass S88x (Grass Technologies of Astro-Med, Inc., West Warwick, RI) Stimulus Isolation Unit (A385, WPI Inc., USA) was set to deliver a 50 mA square-wave stimulus, with a 0.8 second duration, a pulse width of 10 msec, and a frequency of 50 Hz. A pair of custom stainless steel electrodes were soaked in 0.2% Agar, and then the subject received bilateral transauricular stimulation through ear-clip electrodes. During the stimulation, mice were manually restrained. They were then released into the observation cage for convulsion observation for 60 seconds immediately after stimulation. Each mouse was observed continuously by individuals blinded to treatment conditions and results were recorded.
Anti-seizure assessment endpoints were: (1) latency of hindlimb tonic flexion; (2) latency of hindlimb tonic extension; (3) total #hindlimb tonic flexions; (4) total #hindlimb tonic extensions; (5) latency to death; and (6) mortality rate
From these fitted curves, ED50 and EC50 values were calculated.

[7] = tested on: male CD-1 mice; assay: Spontaneous locomotor activity (sLMA) test; settings: for sLMA distance moved, dose-response: Compound 1 10-40 mg/kg po; for Tolerability (sLMA) TD50: dose reducing sLMA by 50%
Description: Male CD-1 mice, 6-weeks old, were obtained from Vital River (Beijing, China). The average body weight was 25-35 g at the time the experiments were carried out. The mice were housed in groups of 3-5 under controlled conditions (temperature: 20-26° C.; humidity: 40-70%; air exchange rate: 10-15 cycles/hour; 12:12 light-dark cycle with lights on at 5:00 a.m.). Food and water were available ad libitum. The mice were acclimated to these conditions for 6 days before the start of the studies.
Dosing solutions were prepared on each experiment day. […] All solutions were protected from light. Samples from dosing solutions were stored at 4° C. Both compound and vehicle were dosed at 10 ml/kg.
The sLMA test was carried out over two days. 5 of 10 mice from each treatment group were tested on each day. All animals were marked on the tail with a permanent marker and weighed. Mice were randomly assigned into one of the four treatment groups. Animals were acclimated to the test room at least 30 minutes before the start of the experiment.
Possible side effects, such as overt sedation, were recorded just before the start of the sLMA test.
Each mouse was automatically tracked with overhead cameras using a 1-minute sampling window in an isolated chamber. Spontaneous locomotor activity was then analyzed offline using the Animal Behavior Video Tracking Analysis System (Ji Liang Software Technology Co., Ltd., Shanghai, China).
Locomotor status was defined as >2 mm of movement in every 200 ms (Frame-rate recorded was 20 frames/second. Locomotor status was identified in every 4 frame-to-frame interval. The accumulated shift of tracking spots that exceeded 2 mm in every 4 frame intervals was identified as a locomotor epoch). Traveling distance was calculated automatically from all the locomotion epochs and analyzed.
All mice were anesthetized with CO2. Then, terminal plasma and brain tissue samples were collected from animals in the drug treatment groups. 500 μL whole blood was collected via cardiac puncture and placed in tubes with 10 μL EDTAK2. The tubes were then placed in wet ice until centrifuged at 2000 g for 5 minutes at 4° C. The supernatant plasma was pipetted into Eppendorf tubes.
All statistical analyses were conducted using GraphPad Prism 7.0. Data are presented as mean±s.e.m., and p<0.05 was regarded as statistically significant.
Dose-response and concentration-response curves for plasma and brain were fitted for each end-point using GraphPad Prism. From these fitted curves, TD50 and TC50 values were calculated.

[8] = tested on: healthy participants; assay: 2-part Phase 1 trial (28 days; OXC combination): safety and tolerability; type: in vivo, human; settings: Part B, per arm
Description: as §5

## NC(=O)N1c2ccccc2CC(O)c2ccccc21 (stereo not shown) [10-Hydroxycarbamezapine]
[1]
  exposure when administered concomitantly with Compound 1 vs alone: appeared to be similar

## NC(=O)N1c2ccccc2C=Cc2ccccc21 [Carbamazepine, reference compound]
[2]
  IC50: 77.5 µM
[3]
  IC50: 2310 µM
[4]; hNaV1.6, 10 Hz
  IC50: 1420 µM
  use-dependent block at stimulation frequency of 10 Hz: not observed
[4]; hNaV1.6, 10 Hz, 30 Hz or 50 Hz
  use-dependent block at increased frequencies: could be observed
[5]
  IC50: 44.4 µM
[6]; CBZ 30 mg/kg
  mice protected against MES-induced tonic hindlimb seizures: all mice
[6]
  protection (increase in latency) against MES-induced tonic hindlimb seizures, dose-response: dose-dependent protection
  ED50: 5 mg/kg
[7]; CBZ
  sLMA at the dose required for complete seizure prevention: significant reduction
[7]
  sLMA distance moved, dose-response: dose-dependent reductions
  Tolerability (sLMA) TD50: 37.6 mg/kg
[7]; brain TC50 (sLMA) / brain EC50 (MES), free concentrations
  PI (Brain): 5.9
[7]; plasma TC50 (sLMA) / plasma EC50 (MES), free concentrations
  PI (Plasma): 3.4

## NC(=O)O[C@@H](Cn1ncnn1)c1ccccc1Cl [Cenobamate]
[2]
  IC50: 71.7 µM
[3]; hNaV1.6
  Ratio to Pers. INa (Peak INa TB / persistent INa): 24
[3]
  IC50: 1720 µM
[4]; hNaV1.6
  Ratio to Peak INa (TB) (UDB-10 Hz): 2.3
  Ratio to Pers. INa (Peak INa UDB-10 Hz / persistent INa): 11
[4]; hNaV1.6, 10 Hz
  IC50: 749 µM
[5]
  Ratio to Pers. INa (Peak INa VDB / persistent INa): 0.9
  IC50: 66.7 µM

## COC[C@@H](NC(C)=O)C(=O)NCc1ccccc1 [Lacosamide]
[2]
  IC50: 833 µM
[4]; hNaV1.6
  Ratio to Pers. INa (Peak INa UDB-10 Hz / persistent INa): 0.8
[4]; hNaV1.6, 10 Hz
  IC50: 682 µM
[5]
  Ratio to Pers. INa (Peak INa VDB / persistent INa): 0.3
  IC50: 269 µM

## Nc1nnc(-c2cccc(Cl)c2Cl)c(N)n1 [Lamotrigine, reference compound]
[6]
  protection (increase in latency) against MES-induced tonic hindlimb seizures, dose-response: dose-dependent protection
  ED50: 3.4 mg/kg
[6]; LTG 10 mg/kg, highest dose tested
  mice protected against MES-induced tonic hindlimb seizures: eight of 12
[7]
  sLMA distance moved, dose-response: dose-dependent reductions
  Tolerability (sLMA) TD50: 26.5 mg/kg

## NC(=O)N1c2ccccc2CC(=O)c2ccccc21 [Oxcarbazepine]
[2]
  IC50: 124 µM
[3]; hNaV1.6
  Ratio to Pers. INa (Peak INa TB / persistent INa): 8
[3]
  IC50: 1040 µM
[5]
  Ratio to Pers. INa (Peak INa VDB / persistent INa): 0.3
  IC50: 42 µM
[8]
  patients in whom TEAEs were observed (number): 3
  patients in whom TEAEs were observed (percent): 75%
[1]
  exposure when administered concomitantly with Compound 1 vs alone: appeared to be similar

## O=C1NC(=O)C(c2ccccc2)(c2ccccc2)N1 [Phenytoin]
[2]
  IC50: 59.8 µM
[4]; hNaV1.6
  Ratio to Pers. INa (Peak INa UDB-10 Hz / persistent INa): 15
[4]; hNaV1.6, 10 Hz
  IC50: 877 µM
[5]
  Ratio to Pers. INa (Peak INa VDB / persistent INa): 0.8
  IC50: 47.8 µM

## CCCC(CCC)C(=O)O [Valproic acid]
[2]; hNaV1.6, 1 mM
  inhibition at 1000 µM: 2%
[3]; hNaV1.6, 1 mM
  inhibition at 1000 µM: 11%
[4]; hNaV1.6, 1 mM
  inhibition at 1000 µM: 8%
